Test results: patent publication US20030232013A1, “Therapeutic and diagnostic targeting of cancers cells with tumor homing peptides” (priority 2002, published 2003)
Read-outs that look alike come from different tables or passages of the source. Bridge positions count the residues as written; N and C are the ends. Square brackets hold non-standard residues; d marks the D form. Peptide text beside a SMILES is read from it. Ahx = NCCCCCC(=O)O

What was measured:
[1] = test system: T47D (Human) breast cancer cells; experiment: In vitro competitive cell binding assay, T47D
Procedure: (§1) In Vitro Competitive Cell Binding Assay. The IC50 values of both metallated and non-metallated STh conjugates were determined in human cancer cells by a competitive displacement cell binding assay using ^125I-STh (^125I-Tyr^5-Phe^19-STh or ^125I-Tyr^5-6-Ahx-Phe^19-STh). […] After the incubation, the reaction medium was aspirated and cells were washed three times with media. The radioactivity bound to the cells was counted in a Packard Riastar gamma counting system. The ^125I-STh bound to cells was plotted vs. increasing concentrations of STh conjugate to determine the respective IC50 values (Table 3). For statistical considerations, three separate in vitro cell binding experiments with each conjugate were performed in duplicate.

[2] = test system: MB-231 (Human) breast cancer cells; experiment: In vitro competitive cell binding assay, MB-231
Procedure: as §1

[3] = test system: MCF-7 (Human) breast cancer cells; experiment: In vitro competitive cell binding assay, MCF-7; settings: competitive binding vs. ^125I-Tyr^5-6-Ahx-Phe^19-STh or ^125I-Tyr^5-Phe^19-STh
Procedure: as §1

[4] = test system: CFPAC-1 (Human) pancreatic cancer cells; experiment: In vitro competitive cell binding assay, CFPAC-1; settings: competitive binding vs. ^125I-Tyr^5-6-Ahx-Phe^19-STh or ^125I-Tyr^5-Phe^19-STh
Procedure: as §1

[5] = test system: CAPAN-1 (Human) pancreatic cancer cells; experiment: In vitro competitive cell binding assay, CAPAN-1; settings: competitive binding vs. ^125I-Tyr^5-6-Ahx-Phe^19-STh or ^125I-Tyr^5-Phe^19-STh
Procedure: as §1

[6] = test system: PC-3 (Human) prostate cancer cells; experiment: In vitro competitive cell binding assay, PC-3; settings: competitive binding vs. ^125I-Tyr^5-6-Ahx-Phe^19-STh or ^125I-Tyr^5-Phe^19-STh
Procedure: as §1

[7] = test system: A375 (Human) melanoma cells; experiment: In vitro competitive cell binding assay, A375; settings: competitive binding vs. ^125I-Tyr^5-6-Ahx-Phe^19-STh or ^125I-Tyr^5-Phe^19-STh
Procedure: as §1

[8] = test system: MB-468 (Human) breast cancer cells; experiment: In vitro competitive cell binding assay, MB-468; settings: competitive binding vs. ^125I-Tyr^5-6-Ahx-Phe^19-STh or ^125I-Tyr^5-Phe^19-STh
Procedure: as §1

[9] = test system: H69 (Human) lung cancer cells; experiment: In vitro competitive cell binding assay, H69; settings: competitive binding vs. ^125I-Tyr^5-6-Ahx-Phe^19-STh or ^125I-Tyr^5-Phe^19-STh
Procedure: as §1

[10] = test system: OVCAR-3 (Human) ovarian cancer cells; experiment: In vitro competitive cell binding assay, OVCAR-3; settings: competitive binding vs. ^125I-Tyr^5-6-Ahx-Phe^19-STh or ^125I-Tyr^5-Phe^19-STh
Procedure: as §1

CC(C)C[C@@H]1NC(=O)[C@H](CCC(=O)O)NC(=O)[C@@H]2CSSC[C@@H]3NC(=O)[C@H](C)NC(=O)[C@@H]4CCCN4C(=O)[C@H](CC(N)=O)NC(=O)[C@H](CSSC[C@H](NC(=O)[C@H](Cc4ccc(O)cc4)NC(=O)[C@H](CC(N)=O)NC(=O)[C@H](CO)NC(=O)[C@H](CO)NC(=O)[C@H](CC(N)=O)NC(=O)CCCCCN)C(=O)N2)NC(=O)[C@H](CSSC[C@@H](C(=O)N[C@@H](Cc2ccccc2)C(=O)O)NC(=O)CNC(=O)[C@H]([C@@H](C)O)NC3=O)NC1=O [6-Ahx-Phe^19-STh] (H-[Ahx]NSSNYCCELCCNPACTGCF-OH; disulfide 7-12, 8-16, 11-19 (inferred); N-terminus assumed)
IC50 ([1]; competitive binding vs. ^125I-Tyr^5-6-Ahx-Phe^19-STh or ^125I-Tyr^5-Phe^19-STh, read-out: In vitro IC50, Breast T47D (Human)): 5.6 ± 0.9 nM
IC50 ([2]; competitive binding vs. ^125I-Tyr^5-6-Ahx-Phe^19-STh or ^125I-Tyr^5-Phe^19-STh, read-out: In vitro IC50, Breast MB-231 (Human)): 5.2 ± 1.5 nM
IC50 [3]: 4.6 ± 2.8 nM
IC50 [4]: 4.4 ± 1.5 nM
IC50 [5]: 4.5 nM
IC50 [6]: 3.1 nM
IC50 [7]: 6.4 ± 2.9 nM

CC(C)C[C@@H]1NC(=O)[C@H](CCC(=O)O)NC(=O)[C@@H]2CSSC[C@@H]3NC(=O)[C@H](C)NC(=O)[C@@H]4CCCN4C(=O)[C@H](CC(N)=O)NC(=O)[C@H](CSSC[C@H](NC(=O)[C@H](Cc4ccc(O)cc4)NC(=O)[C@H](CC(N)=O)NC(=O)[C@H](CO)NC(=O)[C@H](CO)NC(=O)[C@@H](N)CC(N)=O)C(=O)N2)NC(=O)[C@H](CSSC[C@@H](C(=O)N[C@@H](Cc2ccccc2)C(=O)O)NC(=O)CNC(=O)[C@H]([C@@H](C)O)NC3=O)NC1=O [Phe^19-STh] (H-NSSNYCCELCCNPACTGCF-OH; disulfide 6-11, 7-15, 10-18)
IC50 ([1]; competitive binding vs ^125-Tyr-6-Ahx-Phe^19-STh, read-out: IC50, T-47D (FIG. 5)): 3 ± 1.7 nM
IC50 ([2]; competitive binding vs ^125-Tyr-6-Ahx-Phe^19-STh, read-out: IC50, MB-231 (FIG. 5)): 5.2 ± 1.3 nM
IC50 [8]: 2.8 nM
IC50 [9]: 4.5 ± 1.7 nM
IC50 [10]: 3.2 nM
